Values of other authors in publication PMC4546427, “Stereoselective Regulation of P-gp Activity by Clausenamide Enantiomers in Caco-2, KB/KBv and Brain Microvessel Endothelial Cells” (PLoS ONE, 2015).
Read-outs that look alike come from different tables or passages of the source.

Tested on: P-gp ATPase
Design: method as in PMID 9300798
Conditions: cited from earlier work

## CC(=O)[C@H]1CC[C@H]2[C@@H]3CCC4=CC(=O)CC[C@]4(C)[C@H]3CC[C@]12C [progesterone]
Concentrations above 25 μmol/L
  Effect on P-gp ATPase activity: inhibited
Low concentration 6.3 μmol/L
  Effect on P-gp ATPase activity: stimulated
